Experimental findings from patent US20080089851A1, “Brown Algae Cell Lyophilisate, Method For The Obtention Thereof” (BIOTECHMARINE, priority 2005, published 2008) are described below.

The subject of data set [1] is normal human keratinocytes. Nature of the data set: Transport of glucides (glucose), normal human keratinocytes. The conditions noted are these: for Capture of [^3H]3-O-MG: Phloretin 0.25 mM. Format: cell-based. The method, then:
The obtained microsomes from human keratinocytes in culture were washed 3 times with a PBS buffer without glucose then pre-incubated in 1 ml of the same buffer for 30 minutes at 37° C. Subsequently, this solution was discarded and the microsomes placed into the glucose-free PBS buffer containing 3-0-Methyl glucose (MG) and [^3H] 3-0-MG with stirring in a water-bath at 37° C. The capture of 3-0-MG is stopped by addition of 1 ml of cold PBS containing cytochalasine B. The kinetics of incubation was performed between 30 and 120 seconds. The microsomes were further rinsed 2 times with PBS, then dissolved in NaOH (1M) at 4° C., over night. The radioactivity was determined with a scintillation counter. 7.2—Assessment of the Rate of Transport of Macromolecules at the Level of Normal Human Keratinocytes The applied method was that of explants allowing to obtain, from a biopsy of human skin, keratinocytes in primary cultures. The assays were carried out on keratinocytes between the 2nd and the 4th passage in order to ensure a reproductibility between the different experiences. The keratinocytes were divided into multiwell plates (6 wells) at a rate of 10^5 cells per well in 1 ml of culture medium […] supplemented with insulin and hydrocortisone. The cells were incubated in the presence and absence of the investigated product. 7.2.1—Transport of Glucides (Glucose) The assay was carried out in triplicate on normal human keratinocytes in culture. • Charge 1: negative control not receiving any product. • Charge 2: positive control (0.25 mM Phloretin) • Charge 3: treated receiving the investigated product • Charges 6-8: treated with 0.25 mM phloretin and the investigated product (3 concentrations) The treatment of keratinocytes with the BB product in the presence and absence of 0.25 mM phloretin was carried out for 20 minutes at 37° C. The membrane microsomes were separated by differential centrifugation. The same protocol of capture of [3H] 3-0-Methyl-Glucose was adopted for the determination of the rate of transport of glucose. (cf. 6.1.1).

Data set [2] has as its system microsomes of human keratinocytes. The data set can be described thus: Transport of glucids (glucose), direct treatment of isolated microsomes. Format: biochemical. Conditions: for Capture of [^3H]3-O-MG: Phloretin 0.25 mM. The protocol: 7.1—Assessment of the Rate of Transport of Macromolecules (Glucids, Lipids and Proteins) in a System of Isolated Microsomes. Direct Effect of the BB Product on Isolated Microsomes: The microsomes of human keratinocytes form a membrane fraction obtained by high-speed differential centrifugation of a cell homogenate. This preparation of microsomes requires the addition of exogenous cofactors such as NADPH. 7.1.1—Transport of Glucids (Glucose) The assay was performed in triplicate after the direct treatment of microsomes. • Charge 1: negative control not receiving any product. • Charge 2: positive control (0.25 mM phloretin) • Charges 3-5: treated with the investigated product (3 concentrations) • Charges 6-8: treated with 0.25 mM phloretin and with the investigated product (3 concentrations) The obtained microsomes from human keratinocytes in culture were washed 3 times with a PBS buffer without glucose then pre-incubated in 1 ml of the same buffer for 30 minutes at 37° C. Subsequently, this solution was discarded and the microsomes placed into the glucose-free PBS buffer containing 3-0-Methyl glucose (MG) and [^3H] 3-0-MG with stirring in a water-bath at 37° C. The capture of 3-0-MG is stopped by addition of 1 ml of cold PBS containing cytochalasine B. The kinetics of incubation was performed between 30 and 120 seconds. The microsomes were further rinsed 2 times with PBS, then dissolved in NaOH (1M) at 4° C., over night. The radioactivity was determined with a scintillation counter. The treatments of microsomes with the BB product alone or in the presence of phloretin were carried out at the same time as the introduction of [3H] 3-0-MG into the incubation medium. The protein assay was performed following the BRADFORD method. The increase in absorbance at 595 nm, determined with spectrophotometer, is proportional to the protein concentration.

Data set [3] has as its system human keratinocytes in senescence. Nature of the data set: Transport of glucids (glucose), human keratinocytes in senescence. Format: cell-based. The conditions noted are these: for Capture of [^3H]3-O-MG: Phloretin 0.25 mM. The method, then: The obtained microsomes from human keratinocytes in culture were washed 3 times with a PBS buffer without glucose then pre-incubated in 1 ml of the same buffer for 30 minutes at 37° C. Subsequently, this solution was discarded and the microsomes placed into the glucose-free PBS buffer containing 3-0-Methyl glucose (MG) and [^3H] 3-0-MG with stirring in a water-bath at 37° C. The capture of 3-0-MG is stopped by addition of 1 ml of cold PBS containing cytochalasine B. The kinetics of incubation was performed between 30 and 120 seconds. The microsomes were further rinsed 2 times with PBS, then dissolved in NaOH (1M) at 4° C., over night. The radioactivity was determined with a scintillation counter. 7.3-Assessment of the Rate of Transport of Macromolecules at the Level of Human Keratinocytes in Senescence The senescence is a phenomenon of cellular aging, where the cells are arrested in the phase G1 of the cell cycle and never enter the synthesis phase leading to the cell division. Senescent cells are characterized by their slow metabolism at synthesis and transport of macromolecules levels. The cells in culture deprived of serum stop their growth, but continue to progress through the cell cycle until they reach the phase G1. The applied method allowed to obtain, from a human skin biopsy, primary cultures of keratinocytes. The assays were performed on keratinocytes, between the 8th and the 10th passage, in order to ensure the presence of senescent cells at control cells level. The keratinocytes were seeded in multiwell plates (6 wells) at a rate of 10^5 cells per well in 3 ml of culture medium […] supplemented with EGF, hydrocortisone, insulin and […]. Afterwards they are maintained for 5 days in incubator under CO2. 7.3.1-Transport of Glucids (Glucose) The assay was carried out in triplicate on human keratinocytes in senescence. • Charge 1: negative control not receiving any product. • Charge 2: positive control (0.25 mM Phloretin) • Charge 3: treated receiving the investigated product • Charges 6-8: treated with 0.25 mM phloretin and with the investigated product (3 concentrations) The treatment of keratinocytes with the BB product in the presence and absence of 0.25 mM phloretin was performed for 20 minutes at 37° C. The membrane microsomes were separated by differential centrifugation. The same protocol of capture of [3H] 3-0-Methyl-Glucose was applied to the determination of the rate of transport of glucose (cf. 6.1.1).

The subject of data set [4] is reconstructed CORNEA Skinethic (keratinocytes of the TR 146 line). The data set can be described thus: Mucous tolerance: cytotoxicity (MTT colour) on reconstructed CORNEA Skinethic. In kind it is cell-based, human. On the set-up: key to TOXICITY: NI = not irritant; I = irritant; VI = very irritant. Conditions: for Colour of both cultures: MTT. The method, then:
1. —Experimental Protocol
Keratinocytes of the TR 146 line, spontaneously transformed, amplified, by cell culture in a defined modified MCDB 153 medium were used.
When cultured on the interface air/liquid in a defined medium, these human keratinocytes form a multilayered epithelium without the cornea layer similar to the human cornea.
The product to be investigated, in this case the BB product according to Example 3, is applied at a rate of 30 μL onto the surface of eight equivalent cultures using a micro-pipette. These cultures are subsequently incubated at 37° C., 5% of CO2, for 10 minutes, 1 hour, 3 hours and 24 hours, at a rate of two cultures by incubation period.
Negative (buffered saline solution) and positive (SDS 0.5% and 1%) controls are prepared sterile and applied in the same way on two cultures, respectively.
These cultures are subsequently incubated at 37° C., 5% of CO2, for 1 hour and 24 hours, at a rate of two cultures by incubation period.
2. —Assessment of the Cellular Viability
The cellular viability is further measured qualitatively after labelling with a vital dye. The MTT system measures the mitochondrial dehydrogenase activity of living cells. The key component is the 3-[4,5-dimethylthiazol-2-yl]-2,5-diphenyl tetrazolium bromide or MTT.
The salt solutions buffered with MTT, in the absence of phenol red, are yellow coloured. The mitochondrial deshydrogenases of living cells cut the tetrazolium cycle, thus inducing formation of purple formazan crystals, insoluble in aqueous solutions.
The crystals formed by the viable cells are trapped in the polycarbonate filters which serve as support to epithelial cultures. The cultures turn to a uniform intense blue/purple colour when they are viable, but remain white/yellow in the case of cell mortality.
The results are compared to negative and positive control substances.
0.15 ml of culture medium containing 10% vol/vol of MTT solution are pipetted under each filter/culture support. After an incubation of 30 min at room temperature, the colour of the different cultures is observed.
Negative control cultures should show an intense blue/purple colour, proof of the viability of mucosa after being in contact for 24 hours.
Positive control cultures should show a white colour, proof of the cellular mortality as from the 1st hour of contact.

Structures are written as SMILES.

As to `O=C(CCc1ccc(O)cc1)c1c(O)cc(O)cc1O` [Phloretin, phloretin], the “Capture of [^3H]3-O-MG” value in data set [1] (30 s) is recorded as 6 nmol/mg of proteins; in data set [1] (60 s) it was 8 nmol/mg of proteins; in data set [1] (90 s), 9 nmol/mg of proteins; in data set [1] (120 s), 10 nmol/mg of proteins; in data set [2] (30 s), 4 nmol/mg proteins; in data set [2] (60 s), 6 nmol/mg proteins. The “Capture of [^3H]3-O-MG” value in data set [2] (90 s) is 8 nmol/mg proteins; in data set [2] (120 s), 8 nmol/mg proteins; in data set [3] (30 s) it was 1 nmol/mg of proteins; in data set [3] (60 s), 3 nmol/mg of proteins; in data set [3] (90 s) it was 5 nmol/mg of proteins; in data set [3] (120 s) it was 7 nmol/mg of proteins. The “rate of transport of glucose (in words)” value in data set [1] (phloretin 0.25 mM alone), in data set [2] (phloretin 0.25 mM alone) and in data set [3] (phloretin 0.25 mM alone) was “strongly inhibits” throughout.

For the compound `CCCCCCCCCCCCOS(=O)(=O)[O-].[Na+]` [SDS], the TOXICITY entry in data set [4] (SDS 0.5%) was “I”; in data set [4] (SDS 1%), “VI”. The “Colour of both cultures” value is “blue” in data set [4] (SDS 0.5%, 10 min); “white” in data set [4] (SDS 0.5%, 1 h); “white” in data set [4] (SDS 0.5%, 3 h); “white” in data set [4] (SDS 1%, 10 min); “white” in data set [4] (SDS 1%, 1 h).
